Measured values as given in article PMC11525138 (The Journal of Biological Chemistry, 2024).
Where two headings read alike, the source gives them in different places.

Tests used:
NanJGH33 [1] = biological target: T1, NanJGH33 (Clostridium perfringens, UniProt A0A0H2YT71); format: biochemical; conditions: pH 4.5
NanIGH33 [2] = biological target: T2, NanIGH33 (Clostridium perfringens, UniProt Q59310); format: biochemical; conditions: pH 4.5
NanHGH33 [3] = biological target: T3, NanHGH33 (Clostridium perfringens, UniProt P10481); format: biochemical; conditions: pH 4.5
NanHGH33 [4] = biological target: T3, NanHGH33; format: biochemical
NanIGH33 [5] = biological target: T2, NanIGH33; format: biochemical
NanHGH33 [6] = biological target: T3, NanHGH33; test: biochemical; format: biochemical
NanJGH33 [7] = biological target: T1, NanJGH33; test: biochemical; format: biochemical
NanJGH33 [8] = biological target: T1, NanJGH33; format: biochemical
C. perfringens CP1 = format: cell-based, Clostridium perfringens; conditions: for Doubling Time: without DANA 0.762; for k (rate constant) of exponential growth: without DANA 0.909 ± 0.098
NanIGH33 [9] = biological target: T2, NanIGH33; test: biochemical; format: biochemical

T1 sequence (A0A0H2YT71 373-820 limits assumed): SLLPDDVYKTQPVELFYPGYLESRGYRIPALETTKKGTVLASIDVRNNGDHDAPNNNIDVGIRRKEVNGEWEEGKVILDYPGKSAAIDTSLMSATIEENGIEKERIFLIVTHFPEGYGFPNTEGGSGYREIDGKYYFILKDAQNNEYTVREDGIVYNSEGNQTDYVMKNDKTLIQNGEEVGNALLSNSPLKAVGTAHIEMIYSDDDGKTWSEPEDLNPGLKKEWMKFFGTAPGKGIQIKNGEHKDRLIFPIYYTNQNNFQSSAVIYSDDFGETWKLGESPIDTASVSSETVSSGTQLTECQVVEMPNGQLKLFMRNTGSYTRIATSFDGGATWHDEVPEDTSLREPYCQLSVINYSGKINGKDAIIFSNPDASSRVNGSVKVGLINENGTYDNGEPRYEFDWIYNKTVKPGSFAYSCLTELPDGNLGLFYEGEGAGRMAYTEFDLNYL
T3 sequence (P10481 whole entry, looked up): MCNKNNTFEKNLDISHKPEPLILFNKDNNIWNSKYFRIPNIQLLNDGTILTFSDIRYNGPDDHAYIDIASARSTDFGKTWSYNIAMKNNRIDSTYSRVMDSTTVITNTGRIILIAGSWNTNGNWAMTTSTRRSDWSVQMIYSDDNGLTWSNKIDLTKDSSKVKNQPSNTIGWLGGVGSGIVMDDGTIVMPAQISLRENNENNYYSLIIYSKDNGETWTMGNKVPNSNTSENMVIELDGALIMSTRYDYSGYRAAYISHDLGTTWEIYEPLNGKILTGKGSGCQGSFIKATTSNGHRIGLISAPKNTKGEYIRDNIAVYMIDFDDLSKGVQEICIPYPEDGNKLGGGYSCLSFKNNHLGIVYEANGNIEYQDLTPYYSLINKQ
T2 sequence (Q59310 243-694 limits assumed): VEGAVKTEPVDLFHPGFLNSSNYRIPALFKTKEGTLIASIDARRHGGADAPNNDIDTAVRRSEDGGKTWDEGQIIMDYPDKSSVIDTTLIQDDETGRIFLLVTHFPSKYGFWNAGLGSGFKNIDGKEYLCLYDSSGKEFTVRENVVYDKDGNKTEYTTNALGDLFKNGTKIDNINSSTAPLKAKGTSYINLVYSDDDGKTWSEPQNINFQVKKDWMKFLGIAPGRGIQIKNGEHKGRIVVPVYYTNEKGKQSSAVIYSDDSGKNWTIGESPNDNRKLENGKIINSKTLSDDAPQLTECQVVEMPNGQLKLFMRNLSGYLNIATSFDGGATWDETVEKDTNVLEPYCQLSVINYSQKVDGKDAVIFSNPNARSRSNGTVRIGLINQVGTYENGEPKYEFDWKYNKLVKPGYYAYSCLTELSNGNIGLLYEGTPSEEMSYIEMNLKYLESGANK

CC(=O)N[C@H]1[C@H]([C@H](O)[C@H](O)CO)O[C@@](OC[C@H]2O[C@@H](O[C@H]3[C@H](O)[C@@H](O)[C@H](O)O[C@@H]3CO)[C@H](O)[C@@H](O)[C@H]2O)(C(=O)O)C[C@@H]1O [6′-SL, 6′-sialyllactose]
hydrolysis of substrate in competition assay (in words) (NanJGH33 [1]): processed both substrates very rapidly | hydrolysis of substrate in competition assay (in words) (NanIGH33 [2]): roughly equal rates | hydrolysis of substrate in competition assay (in words) (NanHGH33 [3]): did not show any significant capacity to hydrolyze

CC(=O)N[C@H]1[C@H]([C@H](O)[C@H](O)CO)OC(C(=O)O)=C[C@@H]1O [DANA, N-acetyl-2,3-dehydro-2-deoxyneuraminic acid]
lactose released from 3′- and 6′-SL in the presence of inhibitor (NanHGH33 [4]): reduced the amount of lactose released | lactose released from 3′- and 6′-SL in the presence of inhibitor (NanIGH33 [5]): reduced the amount of lactose released | Ki (NanHGH33 [6]; pH 7, read-out: Ki): 33.9 ± 4.4 µM | Ki (NanJGH33 [7]; pH 6.8, read-out: Ki): 3.2 ± 0.3 µM | lactose released from 3′- and 6′-SL in the presence of inhibitor (NanJGH33 [8]): reduced the amount of lactose released | effect on growth of C. perfringens in the presence of 3′SL (C. perfringens CP1; 0.5% 3′SL as substrate, 1 mM DANA required for a clear effect): reduce the growth | Doubling Time (C. perfringens CP1; 3'SL + 0.01 mM DANA): 0.571 h | k (rate constant) of exponential growth (C. perfringens CP1; 3'SL + 0.01 mM DANA): 1.214 ± 0.085 | Doubling Time (C. perfringens CP1; 3'SL + 0.1 mM DANA): 0.576 h | k (rate constant) of exponential growth (C. perfringens CP1; 3'SL + 0.1 mM DANA): 1.202 ± 0.066 | Doubling Time (C. perfringens CP1; 3'SL + 1 mM DANA): 1.725 h | k (rate constant) of exponential growth (C. perfringens CP1; 3'SL + 1 mM DANA): 0.402 ± 0.019 | effect on C. perfringens consumption of 3′-SL (C. perfringens CP1; 24 h culture supernatants, HPAEC-PAD quantification): protect against C. perfringens consumption of 3′-SL | reduction of growth of C. perfringens with glucose as the sole carbohydrate source (C. perfringens CP1; glucose as sole carbohydrate source, data not shown): not | Ki (NanIGH33 [9]; pH 6.5, read-out: Ki): 3.1 ± 0.5 µM

CC(=O)N[C@H]1[C@H]([C@H](O)[C@H](O)CO)O[C@@](Oc2c[nH]c3ccc(Br)c(Cl)c23)(C(=O)O)C[C@@H]1O [X-Neu5Ac, 5-bromo-4-chloro-3-indolyl α-D-N-acetylneuraminic acid]
Km (NanHGH33 [6]; pH 7): 280 ± 62.7 µM | kcat (NanHGH33 [6]; pH 7): 13.3 ± 1.2 s⁻¹ | kcat/Km of NanJGH33 relative to NanHGH33 (NanJGH33 [7]): ~3.6 fold | kcat/Km of NanJGH33 relative to NanIGH33 (NanJGH33 [7]): approximately 2 fold | Km (NanJGH33 [7]; pH 6.8): 87 ± 10.7 µM | kcat (NanJGH33 [7]; pH 6.8): 15.3 ± 0.6 s⁻¹ | Km (NanIGH33 [9]; pH 6.5): 123 ± 25.4 µM | Vmax (NanIGH33 [9]; pH 6.5): 0.09 ± 0.01 µM/s | kcat (NanIGH33 [9]; pH 6.5): 9.2 ± 0.6 s⁻¹

CC(=O)N[C@H]1[C@H]([C@H](O)[C@H](O)CO)OC(C(=O)O)=C[C@@H]1N=C(N)N [Zanamivir, 4-guanidino-2,4-dideoxy-2,3-dehydro-N-acetylneuraminic acid]
Ki (NanHGH33 [6]): > 100 µM | inhibition of NanHGH33 (in words) (NanHGH33 [6]): did not display any detectable inhibition | Ki (NanJGH33 [7]): > 100 µM | inhibition of NanJGH33 (in words) (NanJGH33 [7]): did not display any detectable inhibition | Ki (NanIGH33 [9]): > 100 µM | inhibition of NanIGH33 (in words) (NanIGH33 [9]): did not display any detectable inhibition

CC(=O)N[C@H]1[C@H]([C@H](O)[C@H](O)CO)O[C@@](O[C@H]2[C@@H](O)[C@@H](CO)O[C@@H](O[C@H]3[C@H](O)[C@@H](O)C(O)O[C@@H]3CO)[C@@H]2O)(C(=O)O)C[C@@H]1O (stereo partly drawn) [3′-SL, 3′-sialyllactose]
hydrolysis of substrate in competition assay (in words) (NanJGH33 [1]): processed both substrates very rapidly | hydrolysis of substrate in competition assay (in words) (NanIGH33 [2]): roughly equal rates | hydrolysis of substrate in competition assay (in words) (NanHGH33 [3]): hydrolyzed

CCOC(=O)C1=C[C@@H](OC(CC)CC)[C@H](NC(C)=O)[C@@H](N)C1 [Oseltamivir, (3R,4R,5S)-4-acetamido-5-amino-3-(1-ethylpropoxy)-1-cyclohexene-1-carboxylic acid ethyl ester]
Ki (NanHGH33 [6]): > 100 µM | inhibition of NanHGH33 (in words) (NanHGH33 [6]): did not display any detectable inhibition | Ki (NanJGH33 [7]): > 100 µM | inhibition of NanJGH33 (in words) (NanJGH33 [7]): did not display any detectable inhibition | Ki (NanIGH33 [9]): > 100 µM | inhibition of NanIGH33 (in words) (NanIGH33 [9]): did not display any detectable inhibition

CC(=O)N[C@H]1NC[C@H](C(=O)O)[C@H](O)[C@@H]1O [Siastatin B, (3S, 4S, 5R, 6R)-6-(acetylamino)-4,5-dihydroxy-3-piperidinecarboxylic acid]
Ki (NanHGH33 [6]): 125 ± 16.2 µM | Ki (NanJGH33 [7]): 13.3 ± 1.6 µM | Ki (NanIGH33 [9]): 10.7 ± 2 µM
